Results reported in patent publication US8765802B2, “Kinase inhibitors, compositions thereof, and methods of use therewith” (Provid Pharmaceuticals, Inc., priority 2007, dated 2014).

Assays:
[1] = test system: HDMX in MCF7 cells; test: HDMX degradation in MCF7 cells following DNA damage (Western blot); format: cell-based; conditions: varying concentrations 2.5 h, then 1 μM topotecan 4 h or 10 Gy IR + 4 h
Protocol: FIG. 2. […] MCF7 cells were treated in the absence (control) or presence of compound 18 at varying concentrations for 2.5 hours. The cells were then exposed to either 1 μM topotecan (TPT) for 4 hours or they were exposed to 10 Gy IR and incubated for 4 hours. Whole cell extracts were made and Western blotting was performed to detect HDMX. The levels of HDMX were quantified from the blots and normalized to actin. The normalized levels of HDMX are depicted as bar graphs under the blots.

[2] = test system: mouse thymocytes; test: IR-induced apoptosis in mouse thymocytes (PI staining, FACS); format: cell-based; conditions: thymocytes from Chk2+/+ or Chk2-/- mice, 1 μM for 1 h, 5 Gy IR, 16 h
Protocol: FIG. 3. […] Thymocytes were isolated from Chk2+/+ or Chk2−/− mice by mechanical disaggregation. The isolated thymocytes were treated in the absence or presence of 1 μM compound 18 or ref^λ (J. Wu et al, Bioorganic and Medicinal Chemistry letters, 2007, 17(1), 172, [N-isobutyl analog of compound 7]) for 1 hour. The cells were then exposed to 5 Gy IR and incubated for 16 hours. The cells were then washed in PBS and fixed in ethanol. Propidium isodide (PI) was added in the presence of RNAse A before being subjected to flow cytometry. The graphs show FACS analysis of the PI stained cells.

[3] = molecular target: T1, Chk2 (Homo sapiens, UniProt O96017); test: Chk2 inhibitor IMAP assay (high-throughput Chk2 screening assay); format: biochemical; conditions: IMAP fluorescence polarization assay, 10 μM ATP
T1 construct: made in house; host or cells: E. coli BL21 Star (Invitrogen)
T1 sequence (O96017 whole entry): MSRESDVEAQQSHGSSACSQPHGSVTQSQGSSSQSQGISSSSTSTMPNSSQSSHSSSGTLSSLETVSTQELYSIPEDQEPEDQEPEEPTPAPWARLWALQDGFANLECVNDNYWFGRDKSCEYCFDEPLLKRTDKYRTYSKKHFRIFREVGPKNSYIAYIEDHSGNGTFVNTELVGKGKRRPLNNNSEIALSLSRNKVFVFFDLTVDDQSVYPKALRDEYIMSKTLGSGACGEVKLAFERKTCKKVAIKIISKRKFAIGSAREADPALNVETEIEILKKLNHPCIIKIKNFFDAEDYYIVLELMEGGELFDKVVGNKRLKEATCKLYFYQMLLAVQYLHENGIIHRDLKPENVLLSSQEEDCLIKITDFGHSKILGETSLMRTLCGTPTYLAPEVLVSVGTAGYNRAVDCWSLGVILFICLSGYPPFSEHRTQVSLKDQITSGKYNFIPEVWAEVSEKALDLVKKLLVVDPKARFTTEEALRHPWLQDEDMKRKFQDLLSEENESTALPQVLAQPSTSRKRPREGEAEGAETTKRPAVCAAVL
Protocol: Compounds set forth in Table 1 were tested in the Chk2 inhibitor IMAP assay described herein in Example 6.84. […] The letters given for the Chk2 EC50 values in Table 1 represent the following ranges: A=<100 nM; B=100-300 nM; C=300-1000 nM; D=1-10 μM; and E>10 μM.
Compounds can be screened for Chk2 inhibitory activity using a high-throughput screening assay based in the immobilized metal ion affinity-based fluorescence polarization (IMAP) assay developed by Molecular Devices. This assay is based on the high affinity binding of phosphate by immobilized metal (MIII) coordination complexes on nanoparticles. A fluorescein-labeled peptide substrate is used as the substrate for the kinase activity of Chk2 in the assay. The IMAP binding reagent stops the kinase reaction. The binding of the binding reagent results in a change in the rate of molecular motion of the peptide and causes an increase in the fluorescence polarization value observed for the fluorescein label attached to the end of the peptide. Thus, inhibition of Chk2 would result in a decrease in fluorescence polarization compared to control.
A specific protocol for screening Compounds for Chk2 inhibitory activity follows.
A Compound is supplied at 1 mM in 0.5 μl DMSO on 384 well plates (such as Greiner or Corning). After thawing, 5 μl DMSO is added to the drug plate. The drug plate is then incubated for 10 minutes to solubilize the Compound. An additional 19.5 μl of reaction buffer (10× stock prepared using 100 mM Tris-HCl, 100 mM MgCl2, 1% BSA, pH 7.2, stored at 4° C.)+1 mM DDT is added to bring the Compound to 4× final concentration. A positive control is also prepared at 4× final concentration. The following control wells are used: less enzyme control (all reagents except enzyme; 5 μl/well), less Compound control (all reagents except Compound; 5 μl/well), positive control (all reagents plus staurosporine at a final concentration of 5 μM; 5 μl/well).
Reagents are then added in the following order to give the following final concentration: 2.5 μl ATP/Chk2tide (Molecular Devices) (10 μM/100 nM final concentration), 1.25 μl Compound (5 μM final concentration inf 5.5% DMSO), and 1.25 μl Chk2 (1:500, 2.4 μg/mL final concentration).
Plates are covered and incubated at room temperature for 60 minutes.
IMAP binding reagent (Molecular Devices) is diluted 1:400 into binding buffer (Molecular Devices). 15 μl of this solution is then added to all wells and the plates are covered and incubated for 30 minutes.
Plates are read using a Tecan Ultra under the fluorescence polarization mode. Gain is set to the less enzyme and less Compound wells for each plate. Excitation 485 nm, emmission 535 nm, Z position 12519 and flashes 5 are used as settings. Raw data from the Tecan reader is imported into an access database for analysis.

[4] = test system: OVCAR-4 cells; test: Combination with camptothecin in OVCAR-4 cells (MTS growth inhibition); format: cell-based, human; conditions: 48 h, MTS staining, 40 combinations
Protocol: FIG. 4. Compound 18 is synergistic with camptothecin (CPT) in OVCAR-4 cells. OVCAR-4 cells were treated with either compound 18 or CPT as single agents in 96 well tissue culture plates. In addition, the cells were exposed to 40 combinations of compound 18 and CPT. The drug treatments were for 48 hours and the cells were then subjected to MTS staining to determine the growth inhibitory effect. The graph represents a 3-dimensional plot of the MTS data obtained. The upper, light gray surface represents a theoretical surface of additivity that was generated from dose response curves of compound 18 alone and CPT alone. The lower, dark grey surface depicts the surface of the combination of compound 18 and CPT that was generated from data obtained in the MTS assay (shown by the blue circles). Data points lying under the green additivity surface are deemed to synergistic combinations. The bar graph on the right is a 2-dimensional representation of 1 combination of 11 μM compound 18 and 6.25 μM CPT taken from the 3-D model.

EC50 [3]: < 100 nM
SMILES: C/C(=N\NC(=N)N)c1ccc(NC(=O)c2cc3cccc([N+](=O)[O-])c3[nH]2)cc1 [Compound 18]
Effect on HDMX degradation following DNA damage [1]: Abrogation of HDMX degradation | Effect on IR-induced apoptosis [2]: abrogation of IR-induced apoptosis | Combination effect with camptothecin (CPT) [4]: synergistic
